The results in this text go back to patent US7514432B2, “Compounds and methods of treating cell proliferative diseases, retinopathies and arthritis” (Exonhit Therapeutics SA, priority 2003, dated 2009).

Molecules are shown by their SMILES. Bounds are passed on as bounds.

Assay [1] has as its system HMEC1. In words: Cell viability assay (MTT), HMEC1. The format is cell-based, Human. The note with it: 10% FBS; for IC50: MTT, 6-day treatment, 1% DMSO. As to the method: (§1) Table 12: 6-day cell viability assay (MTT) in the presence of 10% Fetal Bovine Serum and 1% DMSO, in HMEC1, HCT116, MDA-MB-231, MCF7 and NIH3T3 cell lines. 3 10^3 to 15 10^3 cells were seeded in 48-well plates in growth medium containing 10% FBS, with or without various concentrations of test compounds. Cell cultures were fed every 3 days with the appropriate media. Cell viability was determined on day 6. Data were analyzed and IC50s were calculated from dose-response curves using GraphPad Prism. Results summarized in the tables are mean±SEM of 1 to 8 independent experiments.
(§2) In order to determine a compound's effect on cell viability, microculture tetrazolium assays (MTT) were performed as described by Carmichael et al. (1996) with modifications. Four human tumoral cell lines, namely HCT116 colon adenocarcinoma, H460 lung carcinoma, MCF-7 and MDA-MB-231 breast carcinoma cell lines, DLD1 colorectal adenocarcinoma, HeLa adenocarcinoma, HepG2 hepatocellular carcinoma. 3 immortalized but non tumorigenic cell lines, namely NIH3T3 mouse fibroblasts (American Type Culture Collection) and primary hepatocytes (Biopredic international), cultured according to their recommendations together with Human Microvasculature Endothelial Cell line HMEC1 (National Center for Infectious Diseases). Briefly, cells were seeded in 48-well plates 24 hours before drug addition. Cells were treated with 0 to 200 μM (11 concentrations) of compound solubilized in DMSO, adjusting the final concentration of DMSO to 1% in the well. 16 hours, and three or six days after treatment, 0.5 mg/ml MTT (Sigma) was added to the medium and cells were incubated for 1-5 hours at 37° C. before solubilization of formazan crystals in 100% DMSO. Absorbance was measured using a spectrophotometer at a wavelength of 550 nm. Data was analyzed using the GraphPad Prism software (GraphPad Software, Inc.), and IC50 (dose leading to 50% cell death) was calculated from the dose-response curves.

The test system of assay [2] is MCF7. The experiment in a line: Cell viability assay (MTT), MCF7. It is filed as cell-based. The note with it: Homo sapiens, MCF7, 144 h, 10% FBS, 6-day treatment, 1% DMSO. As to the method:
as §1
(§3) Table 14: 3-day cell viability assay (MTT) in the presence of 10% Fetal Bovine Serum and 1% DMSO, in DLD1, HCT116, MDA-MB-231, MCF7 and HeLa cells. 7.5 10^3 to 1.5 10^4 cells were seeded in 48-well plates in growth medium containing 10% FBS, with or without various concentrations of test compounds. Data were analyzed and IC50s were calculated from dose-response curves using GraphPad Prism. Results summarized in the tables are mean±SEM of 1 to 7 independent experiments.
as §2

For assay [3], the system named is MDA-MB-231. The experiment in a line: Cell viability assay (MTT), MDA-MB-231. It is filed as cell-based, human. The note with it: 10% FBS, 6-day treatment, 1% DMSO, read-out: IC50 μM, MDA-MB-231. The method, then:
as §1
(§4) Table 13: 6-day cell viability assay (MTT) in the presence of 0.5% Fetal Bovine Serum and 1% DMSO, in HCT116 and MDA-MB-231 cell lines. 7.5 10^4 to 15 10^4 cells were seeded in 48-well plates in growth medium containing 10% FBS, with or without various concentrations of test compounds. Cell cultures were fed every 3 days with the appropriate media. Cell viability was determined on day 6. Data were analyzed and IC50s were calculated from dose-response curves using GraphPad Prism. Results summarized in the tables are mean±SEM of 1 to 2 independent experiments.
as §3
(§5) Table 15: 16-hour cell viability assay (MTT) in the presence of 10% Fetal Bovine Serum and 1% DMSO, in HCT116, MDA-MB-231, NIH3T3, HepG2 and primary hepatocytes. 5 10^4 to 10 10^4 cells were seeded in 48-well plates in growth medium containing 10% FBS, with or without various concentrations of test compounds. Data were analyzed and IC50s were calculated from dose-reponse curves using GraphPad Prism. Results summarized in the tables are mean±SEM of 1 to 2 independent experiments.
as §2

The test system of assay [4] is NIH 3T3. In words: Cell viability assay (MTT), NIH 3T3. It is filed as cell-based, mouse. The note with it: 10% FBS, 6-day treatment, 1% DMSO. As to the method:
as §1, §5, §2

The subject of assay [5] is HCT116. The experiment in a line: Cell viability assay (MTT), HCT116. It is filed as cell-based, human. The note with it: 1% DMSO. The method, then:
as §1, §4, §3, §5, §2

Assay [6] concerns DLD1. The experiment in a line: Cell viability assay (MTT), DLD1. The format is cell-based. The note with it: Homo sapiens, DLD-1, 72 h, 10% FBS, 3-day treatment, 1% DMSO. As to the method: as §3, §2
Assay [7] relates to HMEC-1 cells. In words: Tubule formation (tubulogenesis) assay on Matrigel. The format is cell-based, Human. As to the method: FIG. 5: Tubulogenesis assay (number of junctions). 2 10^4 Cells were plated on Matrigel-coated wells as described in the material and methods. Pictures of each well were taken after a 7-hours incubation. The “number of junctions” parameter was quantitated using the AngioSys software and data were analyzed using GraphPad Prism for IT50 calculation. Values represent the mean±SEM of 2 to 30 independent experiments.
The endothelial cell tube formation assay, or tubulogenesis assay, is an in vitro assay that is widely accepted to accurately reflect number of terminal stages of the angiogenic process such as attachment, migration and differentiation into tubular structures. In this model, endothelial cells are cultured on a monolayer of reconstituted basement membrane components (Matrigel) and form, in a few hours, capillary-lilke structure. Therefore, this system is a useful and powerful tool for rapidly screening anti-angiogenic agents by monitoring inhibition of endothelial cells morphogenesis on extracellular matrix.
HMEC-1 cell line is cultured in MCDB-131 medium (Sigma) supplemented with 15% FBS, 10 ng/ml recombinant human epidermal growth factor (Invitrogen) and 1 μg/ml hydrocortisone. Cells are cultured to 70-80% confluence. A 96-well plate was coated with Matrigel® Basement Membrane Matrix (Becton Dickinson). 2 10^4 HMEC-1 cells were seeded into each well. The test or control compounds were diluted in DMSO and added to the coated plate. The plate was subsequently incubated for 6 to 8 hours at 37° C., 5% CO2 atmosphere to allow tubule formation. The cells were then incubated with 1.25 μg/ml Calcein AM for 15 minutes at 37° C., 5% CO2. Pictures of each well were taken using a fluorescent microscope and a digital camera (Nikon Coolpix 990). Images were analysed using AngioSys software (TCS Cellworks) that allows quantification of the total tubule length and of the number of junctions, two parameters representative of tubule formation/disruption. Data was analyzed using the GraphPad Prism software, and IT50s (dose leading to 50% inhibition of tubulogenesis) was calculated.

The subject of assay [8] is NIH3T3. The experiment in a line: Boyden chamber migration assay, NIH3T3. It is filed as cell-based, mouse. The note with it: FBS as chemoattractant. As to the method: (§6) FIG. 4: Migration assays. (A) Wound healing assay in REF cells. 7.6 10^4 cells were plated on coverslips 48 hours before the experiment. The cells were pre-treated for 30 min. with the compounds, and then a scrape was done using a pipette tip. The scraped coverslips in treatment medium were put under a thermostated microscope coupled to a video camera. Movies were analyzed as described in material and methods, and velocity and total distance covered by the cells were evaluated. Bar graphs represent the mean±SEM of 2 to 4 experiments. (B) Boyden chamber migration assay in HMEC1, NIH3T3 and MDA-MB-231 cells. 5 10^4 to 7.5 10^4 Cells, resuspended in culture medium with or without FBS and with different compound concentrations, were seeded in the upper Boyden blind well on top of 8 μm pore-sized filters. The ability of the cells to migrate through the filter was assayed in the absence or presence of FBS in the lower Boyden chamber. After 16 hours incubation, the medium was removed and replaced with calcein-AM containing medium. After labeling, cells were washed with HBSS and fluorescence was read in a fluorescence plate reader. Fluorescence values were normalized against the fluorescence obtained for the 1% DMSO control. The data plotted are the means±SEM of 2 to 4 independent experiments.
(§7) An essential characteristic of malignant cells is their ability to migrate, invade host tissues and to produce metastases. In order to evaluate the capacity of one compound to affect the ability of tumoral cells to migrate, migration assays were performed using highly invasive tumoral cells MDA-MB-231, endothelial cells HMEC1 or fibroblastic cells NIH3T3. This assay was performed using Falcon HTS Fluoroblock inserts. Culture medium containing Fetal Bovine Serum (FBS; which is used as a chemoattractant) was added to the plate wells and 2 10^4 to 7.5 10^4 cells resuspended in medium without FBS and with 0.1% BSA were added to each insert well. The compound of interest was added to the medium in both the upper and the lower chambers. Plates were incubated for 16 hours at 37° C. Following incubation, the medium was removed from the upper chamber and the entire insert plate was transferred to a second 24-well plate containing 4 μg/ml Calcein-AM™ in medium containing 0.1% BSA. The plates were incubated for one hour at 37° C., rinsed with Hanks Buffered Saline (HBSS). Fluorescence data were collected using Fluoroskan Ascent FL fluorescence plate reader at an excitation wavelength (Ex) of 485 nm and emission wavelength (Em) of 517 nm. Only those labelled cells that passed through the Matrigel layer and the membrane were detected. Data were analyzed using the GraphPad Prism software and IM50s (dose at which 50% inhibition of cell migration is observed) were calculated.

Assay [9] concerns MDA-MB-231. In words: Boyden chamber migration assay, MDA-MB-231. It is filed as cell-based, human. The note with it: FBS as chemoattractant; 16 hours. As to the method: as §6, §7
The mark [10] stands for this setting: Homo sapiens, MDA-MB-231, 144 h.
Where [11] appears, read: Homo sapiens, HCT-116, 144 h, 10% FBS, 6-day treatment.

Usually IC50 stands for the concentration that inhibits the measured activity by half. With `CCN(CC)C(=O)N1CCN(Cc2cc(=O)c(OCCCCCSc3ccnc4cc(C(F)(F)F)ccc34)co2)CC1` [EHT 5743, 4-((5-(5-(7-(Trifluoromethyl)quinolin-4-ylthio)pentyloxy)-4-oxo-4H-pyran-2-yl)methyl)-N,N-diethylpiperazine-1-carboxamide], the 50% inhibitory concentration (IC50) in assay [1] (Homo sapiens, HMEC-1, 144 h) was less than 10 µM; in assay [1] it was 8 µM; in assay [2], 1.2 µM; in [3], 8.8 µM; in [3] (setting [10]), less than 9 µM; in [4] (Mus musculus, NIH3T3, 144 h) it was 2.4 µM. Also, in assay [1] (MTT 6 days, compounds most active in HCT116), the “difference of activity in HMEC1 cells as compared to HCT116 cells” value was 20 fold.

Consider `O=c1[nH]cc(F)c(=O)[nH]1` [5FU, 5-FluoroUracile, reference compound], for which the IC50 in assay [5] (Homo sapiens, HCT-116, 72 h, 10% FBS, 3-day treatment) was found to be 7.83 µM; in [6] it was 5.44 µM.

Consider `O=c1cc(CN2CCOCC2)occ1OCc1ccc(CSc2ccnc3cc(C(F)(F)F)ccc23)cc1` [EHT 2218, 5-((4-((7-(Trifluoromethyl)quinolin-4-ylthio)methyl)phenyl)methoxy)-2-(morpholinomethyl)-4H-pyran-4-one], for which the “fold more active than reference compound CAI in tubulogenesis” value in assay [7] (HMEC1 on Matrigel) came out at 4 fold. Besides, the IC50 in assay [7] (Homo sapiens, HMEC-1, HMEC1 on Matrigel, 6 to 8 hours, read-out: IC50, tubulogenesis (number of junctions)) is 30.8 µM; in assay [1] (Homo sapiens, HMEC-1, 144 h), 19.3 µM; in [5] (10% FBS, 6-day treatment), 3.7 µM; in assay [5] (Homo sapiens, HCT-116, 144 h, 0.5% FBS, 6-day treatment), 3.3 µM; in assay [5] (setting [11]) it was less than 4 µM; in assay [3], 5 µM. In addition, the IC50 in assay [3] (setting [10]) is less than 9 µM; in assay [4] (Mus musculus, NIH3T3, 144 h) it was 26 µM.

For the molecule `O=c1cc(CN2CCOCC2)occ1OCCCCCSc1ccnc2cc(C(F)(F)F)ccc12` [EHT 7168, 2-Morpholin-4-ylmethyl-5-[5-(7-trifluoromethyl-quinolin-4-ylsulfanyl)-pentyloxy]-4H-pyran-4-one], the IC50 in assay [8] (Mus musculus, NIH3T3, 16 h) amounted to 16.4 ± 3.4 µM; in assay [1], 25.2 µM; in assay [5] (10% FBS, 6-day treatment), 4.9 µM; in [3], 9.8 µM; in assay [4], 12.7 µM.

For `Cc1[nH]c(/C=C2\C(=O)Nc3ccccc32)c(C)c1CCC(=O)O` [SU-6668, reference compound], the “potency in tubulogenesis assay” value in [7] (VEGF and FGF free conditions) was “weakly potent”. Moreover, the 50% inhibitory concentration (IC50) was 36 µM in [1] (Homo sapiens, HMEC-1, 144 h); 18.9 µM in assay [5] (setting [11]); 22.5 µM in assay [3] (setting [10]); 35.7 µM in assay [4] (Mus musculus, NIH3T3, 144 h).

`CN1CCN(Cc2cc(=O)c(OCCCCCSc3ccnc4cc(C(F)(F)F)ccc34)co2)CC1` [EHT 7365, 2-(4-Methyl-piperazin-1-ylmethyl)-5-[5-(7-trifluoromethyl-quinolin-4-ylsulfanyl)-pentyloxy]-4H-pyran-4-one]: the IC50 in [8] (16 hours) was 6.1 ± 1.1 µM; in assay [9], 3.9 ± 0.8 µM; in [1], 8.3 µM; in [5] (10% FBS, 6-day treatment) it was 5.4 µM; in assay [4] (Mus musculus, NIH3T3, 144 h), 6.5 µM.
